From patent publication US20040171622A1, “Cardioprotective delta opioid receptor agonists and methods of using same” (priority 2003, published 2004)
Read-outs that look alike come from different tables or passages of the source.

How the values were obtained:
[1] = system: rats; test: In vivo coronary artery occlusion (30 min) and reperfusion, pre-ischemic administration; parameters: species or system rat
[2] = biological target: T1, κ opioid receptor (Cavia porcellus, UniProt P41144); test: Radioligand binding ([3H]U69593), guinea pig cerebellum membranes
T1 construct: tissue Pel-Freeze Biological Inc. (Rogers, Ark.); host or cells: guinea pig cerebellum membranes

[3] = biological target: T2, δ opioid receptor (Rattus norvegicus, UniProt P33533); test: Radioligand binding ([3H]Deltorphin II), rat brain membranes
T2 construct: tissue Pel-Freeze Biological Inc. (Rogers, Ark.); host or cells: rat whole brain membranes

[4] = system: rats; test: Observation of seizures in tail pinch test animals; type: in vivo, rat; conditions: intravenous, up to 50 mg/kg
Experimental: (§1) Analgesia was assayed in rats using the tail pinch test. Compound 1 was administered intravenously. Nociceptive response values were obtained for a 1-2 hour period. An artery clamp was placed on the tail (one inch from the tip of the tail) for a short duration until an escape response occurred (i.e. tail-flick or vocalization). The escape response latency was recorded by means of a stopwatch. A cutoff time of 20 sec. was used to prevent unnecessary tissue damage. […] The elapsed time to elicit a pain response was recorded as the tail pinch latency in seconds.
(§2) Further, the compound acts predominately at peripheral delta opioid receptors.

[5] = system: rats; test: In vivo coronary artery occlusion and reperfusion, administration immediately prior to reperfusion; parameters: species or system rat; conditions: 0.3 mg/kg, administered at time of reperfusion
[6] = system: rats; test: In vivo LAD coronary artery ligation (35 min) and reperfusion, infarct size, pretreatment 15 min prior; parameters: species or system rat; conditions: 1 mg/kg i.v.
[7] = system: hearts isolated from Sprague-Dawley rats; test: tissue or blood; parameters: species or system rat; conditions: for % IS/AAR: about 15 min prior to occlusion; for inhibition at 0.0001 µM / inhibition at 0.001 µM / inhibition at 0.01 µM: Rattus norvegicus, after 35 min regional ischemia and 120 min reperfusion; for inhibition at 0.0001 µM: 0.1 nM; for inhibition at 0.001 µM: 1.0 nM
[8] = biological target: T3, μ opioid receptor (Rattus norvegicus, UniProt P33535); test: Radioligand binding ([3H]DAMGO), rat brain membranes
T3 construct: tissue Pel-Freeze Biological Inc. (Rogers, Ark.); host or cells: rat whole brain membranes

[9] = system: rats; test: Tail pinch test for analgesia; type: in vivo, rat; conditions: intravenous
Experimental: as §1, §2

[10] = 0.03 mg/kg i.v. 5 min prior to occlusion
[11] = 0.3 mg/kg i.v. 5 min prior to occlusion

T2 sequence (P33533 whole entry): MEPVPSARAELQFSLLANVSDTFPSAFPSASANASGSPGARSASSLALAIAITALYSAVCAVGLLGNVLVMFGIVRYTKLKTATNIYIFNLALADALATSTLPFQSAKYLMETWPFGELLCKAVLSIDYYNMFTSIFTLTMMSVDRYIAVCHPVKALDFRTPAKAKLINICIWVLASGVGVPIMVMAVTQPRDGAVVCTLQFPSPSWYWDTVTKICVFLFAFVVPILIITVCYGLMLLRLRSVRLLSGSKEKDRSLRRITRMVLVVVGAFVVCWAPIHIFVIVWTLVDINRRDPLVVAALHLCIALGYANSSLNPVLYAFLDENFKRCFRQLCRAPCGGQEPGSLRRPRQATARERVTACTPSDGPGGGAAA
T1 sequence (P41144 whole entry): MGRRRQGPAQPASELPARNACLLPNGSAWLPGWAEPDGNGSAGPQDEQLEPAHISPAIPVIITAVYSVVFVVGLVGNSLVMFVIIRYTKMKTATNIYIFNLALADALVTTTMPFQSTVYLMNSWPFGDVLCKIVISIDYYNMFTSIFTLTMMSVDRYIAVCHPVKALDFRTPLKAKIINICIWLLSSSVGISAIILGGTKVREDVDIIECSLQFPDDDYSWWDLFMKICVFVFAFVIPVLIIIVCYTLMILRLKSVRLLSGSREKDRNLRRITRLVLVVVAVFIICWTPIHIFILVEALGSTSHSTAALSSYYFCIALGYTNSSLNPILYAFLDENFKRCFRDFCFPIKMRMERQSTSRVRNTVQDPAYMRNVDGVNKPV
T3 sequence (P33535 whole entry): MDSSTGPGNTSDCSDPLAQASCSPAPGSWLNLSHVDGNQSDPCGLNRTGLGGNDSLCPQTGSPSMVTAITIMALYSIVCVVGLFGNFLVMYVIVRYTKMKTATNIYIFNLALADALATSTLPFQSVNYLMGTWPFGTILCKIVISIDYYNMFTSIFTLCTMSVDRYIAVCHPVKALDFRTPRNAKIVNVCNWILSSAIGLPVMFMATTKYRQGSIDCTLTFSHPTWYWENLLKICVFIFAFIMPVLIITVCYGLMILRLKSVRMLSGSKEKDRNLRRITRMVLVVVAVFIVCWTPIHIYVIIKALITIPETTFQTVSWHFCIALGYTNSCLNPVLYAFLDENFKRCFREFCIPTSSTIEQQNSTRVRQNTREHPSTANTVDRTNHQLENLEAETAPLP

With CCN(CC)C(=O)c1ccc([C@H](c2cccc(O)c2)N2C[C@@H](C)N(Cc3ccc(C(=O)O)cc3)C[C@@H]2C)cc1 [Compound 1] as the compound, how does the “Study 1 (% IS/AAR)” value ([1]; 0.01 mg/kg i.v. 5 min prior to occlusion) read?
Its value is 56 ± 5%.

What about the “Study 1 (% IS/AAR)” value [1, 10] of the same compound?
The value was 44 ± 10%.

And the “Study 2 (% IS/AAR)” value [1, 10]?
Its value is 40 ± 3%.

And the “Study 2 (% IS/AAR)” value ([1]; 0.1 mg/kg i.v. 5 min prior to occlusion)?
Its value is 39 ± 3%.

And the “Study 1 (% IS/AAR)” value [1, 11]?
Its value is 35 ± 11%.

What about the “Study 2 (% IS/AAR)” value [1, 11] of the same compound?
The value was 38 ± 3%.

What about the “Study 1 (% IS/AAR)” value ([1]; 1.0 mg/kg i.v. 5 min prior to occlusion) of the same compound?
The value was 40 ± 8%.

What about the Ki [2] of the same compound?
The Ki was 17.4 µM.

What about the Ki [3] of the same compound?
Its Ki is 0.00189 µM.

And the Seizures [4]?
The Seizures was “NONE”.

And the Seizures ([4]; listed as compound (1))?
Its Seizures is “no seizures were observed”.

What about the “protection against control ischemic damage” value [5] of the same compound?
Its value is 30-40%.

What about the “Reduction of Infarct Size Relative to Non treated Control” value ([6]; measurement 156 hours after administration (approximately 7 days)) of the same compound?
Its value is 43%.

And the “Reduction of Infarct Size Relative to Non treated Control” value ([6]; measurement after acute administration)?
Its value is 48%.

And the “reduction of infarct size relative to control group” value ([7]; 1 nM acute pretreatment, one group, FIG. 1)?
The value was 71%.

And the “% IS/AAR” value ([7]; 1 nM, isolated rat heart)?
The value was 18 ± 5%.

And the “% IS/AAR” value ([7]; 2 nM, isolated rat heart)?
The value was 9 ± 2%.

What about the “protection against damage present in control group (maximal protection)” value ([7]; 2 nM, isolated rat heart) of the same compound?
The value was ~90%.

What about the “% IS/AAR” value ([7]; 10 nM, isolated rat heart) of the same compound?
The value was 20 ± 6%.

What about the inhibition at 0.0001 µM ([7]; read-out: +dP/dt % inhibition) of the same compound?
Its inhibition at 0.0001 µM is 26%.

And the inhibition at 0.0001 µM ([7]; read-out: CF % inhibition)?
The inhibition at 0.0001 µM was 43%.

And the inhibition at 0.0001 µM ([7]; read-out: HRXDP % inhibition)?
Its inhibition at 0.0001 µM is 32%.

What about the inhibition at 0.0001 µM ([7]; read-out: −dP/dt % inhibition) of the same compound?
Its inhibition at 0.0001 µM is 19%.

And the inhibition at 0.001 µM ([7]; read-out: +dP/dt % inhibition)?
Its inhibition at 0.001 µM is 7%.

What about the inhibition at 0.001 µM ([7]; read-out: CF % inhibition) of the same compound?
Its inhibition at 0.001 µM is 13%.

And the inhibition at 0.001 µM ([7]; read-out: HRXDP % inhibition)?
Its inhibition at 0.001 µM is 17%.

What about the inhibition at 0.001 µM ([7]; read-out: −dP/dt % inhibition) of the same compound?
Its inhibition at 0.001 µM is 10%.

What about the inhibition at 0.01 µM ([7]; 10 nM, read-out: +dP/dt % inhibition) of the same compound?
Its inhibition at 0.01 µM is 21%.

What about the inhibition at 0.01 µM ([7]; 10 nM, read-out: CF % inhibition) of the same compound?
The inhibition at 0.01 µM was 38%.

And the inhibition at 0.01 µM ([7]; 10 nM, read-out: HRXDP % inhibition)?
Its inhibition at 0.01 µM is 32%.

What about the inhibition at 0.01 µM ([7]; 10 nM, read-out: −dP/dt % inhibition) of the same compound?
The inhibition at 0.01 µM was 18%.

What about the “heart tissue functioning, % of normal (on the average)” value ([7]; pretreated hearts, some parameters up to 90%) of the same compound?
Its value is “at least 75%”.

What about the Ki [8] of the same compound?
The Ki was 1.52 µM.

What about the ED50 ([9]; Rattus norvegicus, 20 sec cutoff) of the same compound?
Its ED50 is > 50 mg/kg.

And the analgesic activity [9]?
Its analgesic activity is “no analgesic activity”.
